Earlier results, collected in patent US20120083476A1, “HETEROARYL-SUBSTITUTED SPIROCYCLIC DIAMINE UREA MODULATORS OF FATTY ACID AMIDE HYDROLASE” (Janssen Pharmaceutica NV, priority 2009, published 2012).

System: CREAE mice
Details: Baker 2001; cited from earlier work

For CCCCCCCCCCCCCCCCS(=O)(=O)F [AM374], the “spasticity in CREAE mice” value is listed as “significantly reduce spasticity”.
